Laboratory results as given in US6914045B2, “Glycopeptide antibiotics” (Wyeth Holdings Corporation, priority 2001, dated 2005).
≈ marks a conversion by molar mass, not a printed value.

Columns and labels:
Assay in all cases: in vitro antibacterial evaluation, MIC by broth dilution
Type in all cases: cell-based
Enterococcus sp. = conditions: broth dilution, 18 hours at 35° C.
In short: (§1)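 Step 1: dilute antibiotic across 64-0.06 μg/mL in Muller-Hinton II […]. Step 2: inoculate at 5×10^5 CFU/mL.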

Escherichia coli = test system: Escherichia coli
In short: as §1

Staphylococcus sp. = conditions: broth dilution, 18 hours at 35° C.; for MIC Staphylococcus aureus (GC 1131): strain GC 1131
In short: as §1

Streptococcus sp. = conditions: broth dilution, 18 hours at 35° C.
In short: as §1

MIC Enterococcus avium (GC 4558) (Enterococcus sp.; Enterococcus avium (GC 4558)): 1 µg/mL (≈ 0.702 µM) | MIC Enterococcus faecalis (ATCC 29212) (Enterococcus sp.; Enterococcus faecalis (ATCC 29212)): <0.5 µg/mL | MIC Enterococcus faecalis (GC 2242) (Enterococcus sp.; Enterococcus faecalis (GC 2242)): <1 µg/mL | MIC Enterococcus faecalis (GC 2691) (Enterococcus sp.; Enterococcus faecalis (GC 2691)): 1 µg/mL (≈ 0.702 µM) | MIC Enterococcus faecalis (GC 3059) (Enterococcus sp.; Enterococcus faecalis (GC 3059)): 1 µg/mL (≈ 0.702 µM) | MIC Enterococcus faecalis (GC 4552) (Enterococcus sp.; Enterococcus faecalis (GC 4552)): 1 µg/mL (≈ 0.702 µM) | MIC Enterococcus faecalis (GC 4553) (Enterococcus sp.; Enterococcus faecalis (GC 4553)): 1 µg/mL (≈ 0.702 µM) | MIC Enterococcus faecalis (GC 4554) (Enterococcus sp.; Enterococcus faecalis (GC 4554)): 1 µg/mL (≈ 0.702 µM) | MIC Enterococcus faecalis (GC 6189) (Enterococcus sp.; Enterococcus faecalis (GC 6189)): 1 µg/mL (≈ 0.702 µM) | MIC Enterococcus faecium (GC 2243) (Enterococcus sp.; Enterococcus faecium (GC 2243)): 1 µg/mL (≈ 0.702 µM) | MIC Enterococcus faecium (GC 4556) (Enterococcus sp.; Enterococcus faecium (GC 4556)): 1 µg/mL (≈ 0.702 µM) | MIC Enterococcus faecium (GC 4557) (Enterococcus sp.; Enterococcus faecium (GC 4557)): 1 µg/mL (≈ 0.702 µM) | MIC Enterococcus faecalis (ATCC 29212) (Enterococcus sp.; strain ATCC 29212): <0.5 µg/mL | MIC Enterococcus faecalis (GC 2242) (Enterococcus sp.; strain GC 2242): <1 µg/mL | MIC Enterococcus faecium (GC 2243) (Enterococcus sp.; strain GC 2243): 1 µg/mL (≈ 0.702 µM) | MIC Enterococcus faecalis (GC 2691) (Enterococcus sp.; strain GC 2691): 1 µg/mL (≈ 0.702 µM) | MIC Enterococcus faecalis (GC 3059) (Enterococcus sp.; strain GC 3059): 1 µg/mL (≈ 0.702 µM) | MIC Enterococcus faecalis (GC 4552) (Enterococcus sp.; strain GC 4552): 1 µg/mL (≈ 0.702 µM) | MIC Enterococcus faecalis (GC 4553) (Enterococcus sp.; strain GC 4553): 1 µg/mL (≈ 0.702 µM) | MIC Enterococcus faecalis (GC 4554) (Enterococcus sp.; strain GC 4554): 1 µg/mL (≈ 0.702 µM) | MIC Enterococcus faecium (GC 4556) (Enterococcus sp.; strain GC 4556): 1 µg/mL (≈ 0.702 µM) | MIC Enterococcus faecium (GC 4557) (Enterococcus sp.; strain GC 4557): 1 µg/mL (≈ 0.702 µM) | MIC Enterococcus avium (GC 4558) (Enterococcus sp.; strain GC 4558): 1 µg/mL (≈ 0.702 µM) | MIC Enterococcus faecalis (GC 6189) (Enterococcus sp.; strain GC 6189): 1 µg/mL (≈ 0.702 µM) | MIC Escherichia coli (ATCC 25922) (Escherichia coli; strain ATCC 25922, 18 hours at 35° C.): 64 µg/mL (≈ 44.9 µM) | MIC Escherichia coli (GC 4559) (Escherichia coli; strain GC 4559, 18 hours at 35° C.): 64 µg/mL (≈ 44.9 µM) | MIC Escherichia coli (GC 4560) (Escherichia coli; strain GC 4560, 18 hours at 35° C.): 1 µg/mL (≈ 0.702 µM) | MIC Staphylococcus aureus (GC 1131) (Staphylococcus sp.; inoculum 5×10^5 CFU/mL): 1 µg/mL (≈ 0.702 µM) | MIC Staphylococcus aureus (ATCC 29213) (Staphylococcus sp.; strain ATCC 29213): 1 µg/mL (≈ 0.702 µM) | MIC Staphylococcus aureus (GC 1131) (Staphylococcus sp.): 1 µg/mL (≈ 0.702 µM) | MIC Staphylococcus aureus (GC 3051) (Staphylococcus sp.; strain GC 3051): 1 µg/mL (≈ 0.702 µM) | MIC Staphylococcus aureus (GC 3053) (Staphylococcus sp.; strain GC 3053): <0.5 µg/mL | MIC Staphylococcus aureus (GC 4541) (Staphylococcus sp.; strain GC 4541): 1 µg/mL (≈ 0.702 µM) | MIC Staphylococcus aureus (GC 4542) (Staphylococcus sp.; strain GC 4542): 1 µg/mL (≈ 0.702 µM) | MIC Staphylococcus aureus-SMITH (GC 4543) (Staphylococcus sp.; strain GC 4543): 1 µg/mL (≈ 0.702 µM) | MIC Staphylococcus aureus (GC 4544) (Staphylococcus sp.; strain GC 4544): 1 µg/mL (≈ 0.702 µM) | MIC Staphylococcus aureus (GC 4545) (Staphylococcus sp.; strain GC 4545): <0.5 µg/mL | MIC Coagulase Negative Staphylococcus (GC 4547) (Staphylococcus sp.; strain GC 4547): <0.5 µg/mL | MIC Coagulase Negative Staphylococcus (GC 4548) (Staphylococcus sp.; strain GC 4548): <0.5 µg/mL | MIC Coagulase Negative Staphylococcus (GC 4549) (Staphylococcus sp.; strain GC 4549): <0.5 µg/mL | MIC Coagulase Negative Staphylococcus (GC 4551) (Staphylococcus sp.; strain GC 4551): <0.5 µg/mL | MIC Coagulase Negative Staphylococcus (GC 6257) (Staphylococcus sp.; strain GC 6257): <0.5 µg/mL | MIC Staphylococcus aureus-SMITH (GC 4543) (Staphylococcus sp.; strain SMITH GC 4543): 1 µg/mL (≈ 0.702 µM) | MIC Streptococcus agalactiae (GC 4564) (Streptococcus sp.; Streptococcus agalactiae (GC 4564)): <0.5 µg/mL | MIC Streptococcus pneumoniae (ATCC 6301) (Streptococcus sp.; Streptococcus pneumoniae (ATCC 6301)): <0.5 µg/mL | MIC Streptococcus pneumoniae (GC 1894) (Streptococcus sp.; Streptococcus pneumoniae (GC 1894)): <0.5 µg/mL | MIC Streptococcus pneumoniae (GC 4565) (Streptococcus sp.; Streptococcus pneumoniae (GC 4565)): <0.5 µg/mL | MIC Streptococcus pyogenes (GC 4563) (Streptococcus sp.; Streptococcus pyogenes (GC 4563)): <0.5 µg/mL | MIC Streptococcus pneumoniae (ATCC 6301) (Streptococcus sp.; strain ATCC 6301): <0.5 µg/mL | MIC Streptococcus pneumoniae (GC 1894) (Streptococcus sp.; strain GC 1894): <0.5 µg/mL | MIC Streptococcus pyogenes (GC 4563) (Streptococcus sp.; strain GC 4563): <0.5 µg/mL | MIC Streptococcus agalactiae (GC 4564) (Streptococcus sp.; strain GC 4564): <0.5 µg/mL | MIC Streptococcus pneumoniae (GC 4565) (Streptococcus sp.; strain GC 4565): <0.5 µg/mL
SMILES: CCCc1ccc(C2OCC3OC(OC4C(CO)OC(Oc5ccc(CC6NC(=O)C(C(C)c7ccccc7)NC(=O)CNC(=O)C(CO)NC(=O)C(C(O)C7CNC(=N)N7C7OC(CO)C(O)C(O)C7O)NC(=O)C(C(O)C7CNC(=N)N7)NC6=O)cc5)C(O)C4O)C(O)C(O)C3O2)cc1 (stereo not drawn) [Example 140, Cyclo[glycyl-β-methylphenylalanyl-O-[4-O-[4,6-O-(4-propylbenzylidene)hexopyranosyl]-hexopyranosyl]tyrosyl-3-(2-iminoimidazolidin-4-yl)seryl-3-(3-hexopyranosyl-2-iminoimidazolidin-4-yl)serylseryl]]
MIC Staphylococcus haemolyticus (GC 4546) (Staphylococcus sp.; strain GC 4546): 1 µg/mL (≈ 0.702 µM)
